Series [1] has as its system platelets. Description: Platelets aggregation inhibitory activity (method of Born et al.), ADP-induced, human PRP (Pharmacological Test I). In kind it is cell-based, man. To be noted: 7.5 μM ADP, 37° C., read-out: IC50 ADP (50% platelets aggregation inhibition). On the procedure: (§1) The platelets aggregation inhibitory activity of each test compound was measured by the method of Born et al. [J. Physiol., London, 162, 67 (1962)], using Platelets Aggregation Tracer manufactured by Nikoh Bioscience Co., Ltd.
(§2) 9 volumes of a blood collected from person was mixed with 1 volume of a 3.8% aqueous sodium citrate solution. Part of the mixture was subjected to centrifugation at 1,100 rpm for 10 minutes to obtain a platelet rich plasma (PRP). The remainder of the mixture was also subjected to centrifugation at 3,000 rpm for 10 minutes to obtain a platelet poor plasma (PPP).
(§3) The number of platelets in the PRP was measured using Coulter Counter manufactured by Coulter Electronics Inc. Then, the PRP was diluted with the PPP so that the number of platelets in the dilution became 300,000, whereby a PRP solution was prepared.
(§4) 200 μl of this PRP solution and 2 ml of a solution containing a test compound at a given concentration were placed in an aggregation measurement cell and heated at 37° C. for 1 minute. Thereto was added 20 μl of adenosine diphosphate (ADP manufactured by Sigma Co.) or a collagen suspension (Collagen Reagent manufactured by Horm, Hormon-Chemie, Gmbh) to induce aggregation of platelets. The resulting mixture in the cell was measured for change of transmittance, after which a platelets aggregation curve was prepared. Incidentaly, the concentration of ADP or collagen was selected so that the final Concentration became 7.5 μM or 20 μg/ml.
(§5) Using the platelets aggregation curve, there was calculated a maximum aggregation rate (MAR) of platelets using the followoing formula: […]
(§6) wherein a represents a transmittance of the PRP obtained in the same manner; c represents a transmittance of the PPP obtained in the same manner; and b represents a transmittance at the maximum change, of the PRP solution containng the test compound and the aggregation inducer.
(§7) A MAR was also calculated as above, for the control containing no test compound.
(§8) Using the above two MARs, there were calculated platelets aggregation inhibitions (%) of each test compound at various concentrations using the following formula.
(§9) Inhibition=[1-(MAR of PRP solution containing test compound)/(MAR of PRP
(§10) solution containing no test compound)]×100
(§11) Using the above obtained platelets aggregation inhibitions (%) of each test compound at various concentrations, there was calculated a concentration (IC50) of each test compound for 50% platelets aggregation inhibition.

Another series deals with mongrel dogs. To be noted: dog, in vivo, 300 mg/kg. The method, then: The heart rate-increasing activity and blood pressure hypotensive activity of each test compound were measured by the following method, using mongrel dogs each weighing 10-20 kg. That is, said dogs were anesthesized by intravenous injection of pentobarbital sodium, then fixed at the back, and tested under artificial respiration. The blood pressures of the dogs were measured by a blood pressure measuring transducer (P23×L manufactured by Gould Statham Instruments, Inc.) via cannula inserted into the femoral artery. The heart rates of the dogs were measured using the pulse wave of the blood pressure of each dog, via a tachometer. The signals of these testng apparatuses were recorded on a thermal pen-type recorder (Recti-Horize 8K manufactured by Nippon Denki-San-ei Sha).
Some of the compounds obtained in the above Examples were used as test compounds. […] Then, the heart rate of each dog was measured according to the above method and a maximum change in heart rate was calculated.

Series [2] concerns platelets. Description: Inhibition of collagen-induced platelets adhesion, washed platelets (Pharmacological Test III). Format: cell-based, man. To be noted: Platelet, 50 μg/ml collagen, human washed platelets, read-out: Inhibition (%) of collagen-induced platelets adherence. The method, then: A blood was collected from a healthy person with normal platelets function by addition of 0.1% disodium ethylenediaminetetraacetate (EDTA.4Na) and immediately subjected to separation of a platelet rich plasma (PRP). The PRP was washed twice with a Tyrode's buffer solution (50mM TRIS, 0.1% EDTA, Ca (-), Mg (-), 0.14% BSA added, pH=7.4), and suspended in the buffer solution so that the number of platelets in the resulting suspension became 300, 000/ml, to obtain a platelets suspension (EDTA-WP). 4 mg of Type I manufactured by Sigma Co., derived from a bovine skin was dissolved in 0.25 ml of acetic acid (83.5 mM); 8 ml of distilled water was added thereto; an ultrasonic wave was applied to the mixture at 4° C. for 2 minutes; 5 ml of the supernatant liquid was separated as a collagen solution. Each test compound was dissolved in dimethylformamide (DMF) so as to give a concentration of at least […] when possible, to prepare a test compound solution. The change in turbidity of platelets suspension was recorded as a change in transmitted light emitted from a glass cell containing the suspension, using a platelets aggregation tracer manufactured by Nikoh Bioscience K.K., generally used in the test of platelets aggregation function, whereby the adherence of platelets was measured. Incidentally, in recoridng the change in transmitted light, the sensitivity of the recorder was 5 times as high as that used generally. 200 μl of the EDTA-WP was placed in a glass cell exclusively used for the above platelets aggregation tester. Further, 1 μl of the test compound solution was added. The mixture was incubated at room temperature for 5 minutes. Then, the cell was set in the platelets aggregation tracer and was allowed to stand for 1 minute until the temperature became 37° C. Thereafter, about 20 μl (50 μg/ml) of the collagen solution was added, and the adherence of platelets were measured.
The inhibitions (%) of collagen-induced platelets adhesion by each test compound at various concentrations were calculated using the following formula.
Inhibition (%)=[1-(platelets adherence when test compound added)/
(platelets adherence when no test compound added)]×100

For series [3], the system named is platelets. Description: Platelets aggregation inhibitory activity (method of Born et al.), collagen-induced, human PRP (Pharmacological Test I). Format: cell-based, man. To be noted: Homo sapiens, Platelet, 20 μg/ml collagen, 37° C., read-out: IC50 Collagen (50% platelets aggregation inhibition). On the procedure:
as §1, §2, §3, §4, §5, §6, §7, §8, §9, §10, §11

Series [4] deals with T1, cyclic AMP phosphodiesterase (Homo sapiens, UniProt Q14432).
T1 construct: the resulting supernatant liquid was used as a crude enzyme solution; from tissue; host or cells: human platelets (from platelet-rich plasma)
T1 sequence (Q14432 whole entry): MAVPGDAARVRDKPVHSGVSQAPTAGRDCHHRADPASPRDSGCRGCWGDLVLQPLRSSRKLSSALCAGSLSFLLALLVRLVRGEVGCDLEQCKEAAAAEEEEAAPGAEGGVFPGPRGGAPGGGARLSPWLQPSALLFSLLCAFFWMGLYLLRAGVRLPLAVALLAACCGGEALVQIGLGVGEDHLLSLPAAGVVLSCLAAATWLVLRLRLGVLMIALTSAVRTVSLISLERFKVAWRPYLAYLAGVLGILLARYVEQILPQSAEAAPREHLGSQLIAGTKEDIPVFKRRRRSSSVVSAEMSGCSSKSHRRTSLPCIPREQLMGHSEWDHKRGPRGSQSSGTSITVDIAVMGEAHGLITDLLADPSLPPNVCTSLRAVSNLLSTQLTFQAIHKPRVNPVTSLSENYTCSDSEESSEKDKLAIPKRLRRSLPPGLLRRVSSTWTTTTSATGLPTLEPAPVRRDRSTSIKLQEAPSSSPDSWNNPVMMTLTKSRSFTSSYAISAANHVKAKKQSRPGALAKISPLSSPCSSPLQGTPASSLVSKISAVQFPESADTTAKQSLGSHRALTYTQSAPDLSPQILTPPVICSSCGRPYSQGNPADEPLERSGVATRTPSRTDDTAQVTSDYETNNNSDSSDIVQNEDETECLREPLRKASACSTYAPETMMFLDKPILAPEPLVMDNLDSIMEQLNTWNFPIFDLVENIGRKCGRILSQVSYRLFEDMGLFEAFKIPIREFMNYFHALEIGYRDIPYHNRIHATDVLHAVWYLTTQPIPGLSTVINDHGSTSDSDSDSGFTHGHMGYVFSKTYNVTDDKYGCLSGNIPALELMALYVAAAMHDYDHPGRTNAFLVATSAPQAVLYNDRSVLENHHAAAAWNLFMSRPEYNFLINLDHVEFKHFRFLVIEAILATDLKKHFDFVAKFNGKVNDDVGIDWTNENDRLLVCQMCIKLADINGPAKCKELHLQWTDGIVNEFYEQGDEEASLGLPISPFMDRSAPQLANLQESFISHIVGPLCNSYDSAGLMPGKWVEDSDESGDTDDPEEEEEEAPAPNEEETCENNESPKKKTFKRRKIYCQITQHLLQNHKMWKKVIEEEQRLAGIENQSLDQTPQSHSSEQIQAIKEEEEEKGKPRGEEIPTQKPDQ
Description: Cyclic AMP phosphodiesterase inhibitory activity, enzyme from human platelets (Pharmacological Test IV). Format: biochemical, man. To be noted: 0.4 μM cyclic AMP substrate, 30° C., 20 minutes, human platelet enzyme; read-out: IC50 (50% phosphodiesterase inhibition concentration).

From US5506239A, “Carbostyril derivative and platelets aggregation inhibitory agent” (Otsuka Pharmaceutical Co., Ltd., priority 1991, dated 1996) come the findings set out here.

Molecules are shown by their SMILES.

For the compound `O=c1ccc2cc(OCCCCN(CCN3CCC(O)CC3)c3ccccc3)ccc2[nH]1` [Example 27], the IC50 in the series on platelets [1] (Homo sapiens, Platelet) was 6.7 µM; in the series on platelets [3], 7.7 µM. The “Maximum change in heart rate” value in the series on mongrel dogs was found to be 7 beats/minute. Besides, in the series with platelets [2], the inhibition at 30 µM was 40%.
As for `O=c1ccc2cc(OCCCCN(CCN3CCC(O)CC3)Cc3ccccc3)ccc2[nH]1` [Example 28], the IC50 in series [4] amounted to 0.48 µM. For the same compound, the “Maximum change in heart rate” value with mongrel dogs is given as 0 beats/minute. Moreover, the inhibition at 10 µM in the series on platelets [2] was 48%.
For `CC(=O)NCCN(CCCCOc1ccc2[nH]c(=O)ccc2c1)CC1CCCCCCC1` [Example 61], the IC50 with platelets [1] (Homo sapiens, Platelet) came to 4.9 µM; in the series on platelets [3] it was 6.3 µM. Also, the “Maximum change in heart rate” value in the series with mongrel dogs is 17 beats/minute. Also, in the series on platelets [2], the inhibition at 30 µM stood at 35%.
Consider `CCN(CC)CCN(CCCCOc1ccc2[nH]c(=O)ccc2c1)CC1CCCCCC1` [Example 62], for which the IC50 with platelets [1] (Homo sapiens, Platelet) amounted to 18 µM; in the series with platelets [3] it was 17 µM. The “Maximum change in heart rate” value with mongrel dogs stood at 2 beats/minute. The inhibition at 100 µM in the series with platelets [2] (dose 100 μM) turned out to be 54%.
Turning to `O=c1ccc2cc(OCCCCCN(Cc3ccccc3)Cc3ccccn3)ccc2[nH]1` [Example 70], the IC50 is below 0.1 µM in series [4]; 40 µM with platelets [1] (Homo sapiens, Platelet); 22 µM with platelets [3].
On the same counts, the results for `O=c1ccc2cc(OCCCCS(=O)(=O)N(CCN3CCC(O)CC3)CC3CCCCCCC3)ccc2[nH]1` [Example 79] are below 0.1 µM, 1.3 µM and 2.5 µM.
`O=c1ccc2cc(OCCCS(=O)(=O)N(CCN3CCC(O)CC3)C3CCCCCCC3)ccc2[nH]1` [Example 85]: the IC50 is below 0.1 µM in series [4]; 2.1 µM in the series on platelets [1] (Homo sapiens, Platelet); 0.57 µM in the series on platelets [3]. In the series on mongrel dogs, the “Maximum change in heart rate” value amounted to 13 beats/minute. Further, the inhibition at 3 µM in the series on platelets [2] (dose 3 μM) is 50%.
In the case of `O=c1ccc2cc(OCCCCS(=O)(=O)N(CCN3CCC(O)CC3)Cc3ccccc3)ccc2[nH]1` [Example 89], the IC50 in series [4] was below 0.1 µM; with platelets [1] (Homo sapiens, Platelet) it was 7.7 µM; in the series with platelets [3], 3.8 µM.
On the same counts, the results for `O=c1ccc2cc(OCCCCS(=O)(=O)N(CCN3CCC(O)CC3)Cc3ccccc3Cl)ccc2[nH]1` [Example 93] are below 0.1 µM, 1.2 µM and 2.6 µM.
In the case of `O=c1ccc2cc(OCCCS(=O)(=O)N(CC(O)CO)CC3CCCCC3)ccc2[nH]1` (stereo not shown) [Example 109], the IC50 in the series with platelets [1] (Homo sapiens, Platelet) is 4.9 µM; in the series with platelets [3], 6.3 µM. In addition, in the series with mongrel dogs, the “Maximum change in heart rate” value amounted to 16 beats/minute.
Consider `O=c1ccc2ccc(OCCCCN(CCN3CCC(O)CC3)CC3CCCCCCC3)cc2[nH]1` [Example 134], for which the IC50 in series [4] amounted to 0.49 µM. Also, the inhibition at 10 µM in the series with platelets [2] stood at 45%.
Regarding `CN(C(=S)CCCOc1ccc2[nH]c(=O)ccc2c1)C1CCCCC1` [Example 143], the IC50 was determined as 1.44 µM in series [4], 3.8 µM in the series with platelets [1] and 2.3 µM in the series with platelets [3].
